In article PMC5485575, “Arginine kinase from Haemonchus contortus decreased the proliferation and increased the apoptosis of goat PBMCs in vitro” (Parasites & Vectors, 2017):

Molecular target: T1, rHc-AK (Haemonchus contortus, UniProt K0DG62)
T1 construct: E. coli BL21(DE3), Ni-NTA
Test: fluorimetric ADP formation assay (Universal Fluorimetric Kinase Assay kit)
Format: biochemical
Conditions: room temperature, 30 min; 0-10 ug enzyme; substrates of the kinase reaction solution not named

T1 sequence (K0DG62 entry or part of it): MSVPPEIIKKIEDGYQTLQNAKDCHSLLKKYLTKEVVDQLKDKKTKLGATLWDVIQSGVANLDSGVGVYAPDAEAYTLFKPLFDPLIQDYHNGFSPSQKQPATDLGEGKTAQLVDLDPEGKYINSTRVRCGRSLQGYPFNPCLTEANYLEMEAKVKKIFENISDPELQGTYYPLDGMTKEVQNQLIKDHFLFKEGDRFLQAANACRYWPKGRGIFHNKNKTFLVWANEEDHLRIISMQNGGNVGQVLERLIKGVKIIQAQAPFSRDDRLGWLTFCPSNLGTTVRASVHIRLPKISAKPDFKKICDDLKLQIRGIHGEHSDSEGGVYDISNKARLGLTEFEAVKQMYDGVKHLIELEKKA

Compound: Nc1ncnc2c1ncn2[C@@H]1O[C@H](COP(=O)(O)OP(=O)(O)O)[C@@H](O)[C@H]1O [ADP]
- fluorimetric ADP formation assay (Universal Fluorimetric Kinase Assay kit): results showed a remarkable augmentation in ADP generation with increased period
